Assay results reported in patent publication US20190350940A1, “PLATINUM COMPOUNDS, COMPOSITIONS, AND USES THEREOF” (priority 2015, published 2019).
Where “and” joins values, the source holds several entries; their conditions need not be identical. Equal entries are not always repeated. Entries after “also recorded” stand apart in the source; their conditions may differ.

Assays:
Calu-6 human NSCLC = assay: Calu-6 lung xenograft model; format: in vivo, mouse; settings: mouse, in vivo
Description: The effect of Compound 8 was evaluated in the Calu-6 human NSCLC nude mouse (female Crl:NU(NCr)-Foxn1^nu) xenograft model.

[1] = pH stability: buffering capacity (5 mM versus 100 mM citrate); format: physicochemical; settings: 5 mM versus 100 mM citrate saline pH about 4; impurity profile over 10 hr
Description: In order to assess the effect of the buffering capacity, formulations were made with 5 mM and 100 mM citrate saline pH about 4. Two formulations were made in 100 mM citrate, one at 0.1 mg/ml and the other at 1 mg/ml. A third formulation of 5 mM citrate at 1 mg/ml was made for comparison to determine whether increasing the buffering capacity improved the stability of the formulation.

NCI-H520 human NSCLC = assay: NCI-H520 lung xenograft model; format: in vivo, mouse; settings: mouse, in vivo
Description: The effect of Compound 8 also was evaluated in the NCI-H520 human NSCLC nude mouse (female CrTac:NCr-Foxn1^nu) xenograft model. […] All treatments were statistically significant compared to vehicle (p<0.0001).

CYP2C9 = CYP2C9 (Homo sapiens, UniProt P11712); assay: CYP inhibition, 2C9; format: in vitro ADME
human plasma = assay: In vitro plasma protein binding, human plasma (Compound 8-DMPK-008); format: in vitro ADME; settings: incubation 10 minutes at 37° C.
[2] = pH stability: pH range screen in Britton Robinson buffer (Impurity 2 formation); format: physicochemical; settings: 0.1 mg/ml in Britton Robinson buffer, room temperature
Description: It has been well established in the literature that the maleimide group is susceptible to a ring-opening product at physiological pH values. In order to determine the stability of Compound 8 at a range of pH values, a stock solution of 10 mg/ml Compound 8 in N,N-dimethylformamide (DMF) was spiked into a series of Britton Robinson buffers with pH set at values of 2, 4, 5, 6, 7.3, and 8 to make a final concentration of 0.1 mg/ml Compound 8. The amount of Impurity 2 (maleimide ring opening impurity) that was produced over the course of 24 hr at room temperature is shown in FIG. 1.

CYP2B6 = CYP2B6 (Homo sapiens, UniProt P20813); assay: CYP inhibition, 2B6; format: in vitro ADME
male and female rats = assay: Repeat-dose intravenous toxicity study in rats with a 3-week recovery period (Compound 8-TX-007); format: in vivo
Description: Groups of 30 animals (15/sex) each received vehicle control or Compound 8 9, 14, 19, or 6 mg/kg. Groups of 20 animals (10/sex) received Compound 8 9, 14, 19, or 6 mg/kg and 6 animals (3/sex) received vehicle control in the TK portion of the study.
Assessment of toxicity was based on mortality, clinical observations, functional observational battery evaluations, body weight, and food consumption and efficiency; ophthalmoscopic examinations; and clinical and anatomical pathology. RBC pellet analysis was conducted for total platinum content.
Toxicity and TK assessments were conducted for the test article and positive control.

male rats = assay: Single dose intravenous dose range-finding toxicity study in male rats (Compound 8-TX-001); format: in vivo; settings: rat
Description: (§1) This study (Compound 8-TX-001) was designed as a dose range finding study to support the dose selection for the repeat-dose IV toxicity GLP study in rats (Compound 8-TX-007).
(§2) The test article, Compound 8, was formulated prior to dosing as a solution in 5 mM citrate buffered saline (0.9% sodium chloride), pH about 4-4.5, at nominal concentrations of 2.7, 1.4, 1.9, and 2.3 mg/mL. Compound 8 was administered via IV injection to groups of 3 animals each at doses of 27, 14, 19, and 23 mg/kg. Dose formulations were all within the acceptance criteria (±10% of target concentration) ranging from 98.8 to 106.2 percent of target concentration. Assessment of toxicity was based on mortality, clinical observations, body weight, and food consumption, and clinical and anatomic pathology.

[3] = as above; format: in vivo; settings: male, rat, in vivo, iv, single IV dose, male rats, N=3 per group; read-out: MTD and STD10
Description: as §1, §2

CYP2D6 = CYP2D6 (Homo sapiens, UniProt P10635); assay: CYP inhibition, 2D6; format: in vitro ADME
[4] = test system: A2780 human ovarian cancer; assay: A2780 ovarian xenograft model; format: in vivo, mouse; settings: mouse, in vivo, 20 mg/kg
Description: The effect of Compound 8 on tumor growth inhibition (TGI) was evaluated in the A2780 human ovarian cancer nude mouse (female Crl:NU(NCr)-Foxn1^nu) xenograft model.

CYP1A2 = target: T1, CYP1A2 (Homo sapiens, UniProt P05177); assay: CYP inhibition, 1A2; format: in vitro ADME
T1 construct: host or cells: microsomes are mentioned

Microsomal stability = format: in vitro ADME; settings: NADPH-free controls
Excerpt: Microsomal stability could not be performed because negative controls failed. […] This is consistent with literature reports that microsomes contain protein thiols (Liebler D C, Meredith M J, Guengerich F P. Formation of glutathione conjugates by reactive metabolites of vinylidene chloride in microsomes and isolated hepatocytes. Cancer Res 1985; 45(1):186-93, the contents of which are incorporated herein by reference in their entirety), would react with Compound 8. CYP inhibition was studied to determine whether Compound 8 has an inhibitory effect on microsomes.

Chain of CYP2D6 (P10635 whole entry): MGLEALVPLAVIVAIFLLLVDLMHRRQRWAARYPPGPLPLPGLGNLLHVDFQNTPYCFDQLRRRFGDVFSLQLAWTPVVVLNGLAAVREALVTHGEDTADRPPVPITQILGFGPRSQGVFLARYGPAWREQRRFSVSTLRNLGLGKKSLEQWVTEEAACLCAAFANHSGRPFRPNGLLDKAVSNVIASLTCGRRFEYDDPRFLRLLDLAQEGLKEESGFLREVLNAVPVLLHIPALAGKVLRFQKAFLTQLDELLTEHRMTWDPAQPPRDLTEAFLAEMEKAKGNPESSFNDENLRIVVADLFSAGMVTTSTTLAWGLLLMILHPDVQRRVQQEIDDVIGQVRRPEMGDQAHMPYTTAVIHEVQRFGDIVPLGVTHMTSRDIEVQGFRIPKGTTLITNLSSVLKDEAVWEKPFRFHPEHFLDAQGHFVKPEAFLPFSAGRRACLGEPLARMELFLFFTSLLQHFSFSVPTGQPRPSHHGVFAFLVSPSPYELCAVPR
Chain of CYP2C9 (P11712 whole entry): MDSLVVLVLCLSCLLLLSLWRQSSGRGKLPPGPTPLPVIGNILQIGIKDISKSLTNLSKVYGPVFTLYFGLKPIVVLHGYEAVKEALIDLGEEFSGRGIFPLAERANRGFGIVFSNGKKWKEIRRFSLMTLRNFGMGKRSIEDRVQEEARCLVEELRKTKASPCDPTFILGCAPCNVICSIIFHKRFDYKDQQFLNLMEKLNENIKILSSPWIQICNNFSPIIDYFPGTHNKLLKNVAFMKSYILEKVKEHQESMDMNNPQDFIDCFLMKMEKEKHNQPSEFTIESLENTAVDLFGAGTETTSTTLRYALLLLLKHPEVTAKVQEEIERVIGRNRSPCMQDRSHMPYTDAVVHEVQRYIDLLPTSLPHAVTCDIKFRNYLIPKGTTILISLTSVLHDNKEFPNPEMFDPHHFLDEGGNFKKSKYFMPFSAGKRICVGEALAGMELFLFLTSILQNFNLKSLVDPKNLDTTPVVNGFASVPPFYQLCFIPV
Chain of CYP2B6 (P20813 whole entry): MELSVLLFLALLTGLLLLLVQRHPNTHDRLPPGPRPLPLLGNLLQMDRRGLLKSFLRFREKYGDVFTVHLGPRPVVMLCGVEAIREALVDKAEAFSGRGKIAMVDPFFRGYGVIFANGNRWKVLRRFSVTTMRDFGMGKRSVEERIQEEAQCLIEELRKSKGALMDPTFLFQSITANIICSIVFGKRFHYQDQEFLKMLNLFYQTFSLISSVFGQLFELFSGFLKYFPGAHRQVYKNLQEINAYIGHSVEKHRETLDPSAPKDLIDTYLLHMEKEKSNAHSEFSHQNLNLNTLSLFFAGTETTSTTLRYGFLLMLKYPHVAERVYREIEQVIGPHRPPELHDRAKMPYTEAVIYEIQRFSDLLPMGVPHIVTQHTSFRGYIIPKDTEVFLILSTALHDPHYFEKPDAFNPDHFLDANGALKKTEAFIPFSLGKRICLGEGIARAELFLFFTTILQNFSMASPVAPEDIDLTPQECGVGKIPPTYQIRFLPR
T1 sequence (P05177 whole entry): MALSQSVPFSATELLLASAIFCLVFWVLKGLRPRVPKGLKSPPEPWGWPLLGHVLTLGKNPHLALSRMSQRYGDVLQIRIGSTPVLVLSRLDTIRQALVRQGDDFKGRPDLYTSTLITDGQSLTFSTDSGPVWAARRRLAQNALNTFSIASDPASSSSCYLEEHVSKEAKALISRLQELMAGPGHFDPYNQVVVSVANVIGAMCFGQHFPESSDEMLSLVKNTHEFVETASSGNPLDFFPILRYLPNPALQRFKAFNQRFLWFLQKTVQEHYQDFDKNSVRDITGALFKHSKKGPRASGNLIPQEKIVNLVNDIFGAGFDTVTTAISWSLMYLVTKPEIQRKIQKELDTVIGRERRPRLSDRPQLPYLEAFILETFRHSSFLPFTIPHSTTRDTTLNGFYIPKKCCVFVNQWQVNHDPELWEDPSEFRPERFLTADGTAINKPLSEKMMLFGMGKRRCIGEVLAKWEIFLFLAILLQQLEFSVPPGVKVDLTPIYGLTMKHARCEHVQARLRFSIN

## CC(=O)[O][Pt]([NH2])([NH2])([Cl])([Cl])[O]C(=O)NCCCCCN1C(=O)C=CC1=O [Compound 8]
Calu-6 human NSCLC; 10 mg/kg
  Mean maximal BW loss: 0.9%
Calu-6 human NSCLC; 15 mg/kg
  Mean maximal BW loss: 3.2%
[1]
  Effect of buffering capacity on stability: little effect
NCI-H520 human NSCLC; 10 mg/kg
  Mean maximal BW loss: 2.7%
NCI-H520 human NSCLC; 15 mg/kg
  Mean maximal BW loss: 11%
CYP2C9
  IC50: 950 nM
Human plasma
  Protein bound: > 99%
[2]; pH 5, 4 hr
  Impurity 2 (maleimide ring opening impurity) formation: not detected
[2]; pH 6, within 1 hr
  Impurity 2 (maleimide ring opening impurity) formation: not detected
[2]; pH values below 4, up to 24 hr
  Impurity 2 (maleimide ring opening impurity) formation: not produced
CYP2B6
  IC50: 582 nM
Male and female rats; Compound 8 9 mg/kg
  Body weights (decreased relative to vehicle): transiently through Day 7
Male and female rats; Compound 8 19 mg/kg, terminal males and females
  Local tolerance: microscopic evaluation of the last injection site: slightly increased incidence and/or severity of perivascular subacute/chronic inflammation and/or hemorrhage
Male and female rats; Compound 8 9, 14, 19 mg/kg
  Changes attributable to altered renal function: noted in both sexes at all Compound 8 dose levels
  Deaths, clinical observations, functional observation battery (FOB), ophthalmic examinations: no deaths and no effects were noted
Male and female rats; Compound 8, 19 mg/kg
  Clinical Chemistry (moderate to marked): Creatinine↑, AST↑, ALT↑,; also recorded: Amylase↑, Lipase↑,; also recorded: Cholesterol↑ Globulin↑
  Clinical observations, FOB and ophthalmic observations: No adverse effects
  Mortality: No unscheduled deaths
  Pathology: Kidneys (moderate or severe): Tubule degeneration/necrosis
  Pathology: Organ weights: Thymus↓
  Pathology: Stomach nonglandular: erosion ulcer (1M), no
  Pathology: Testes: Degeneration/atrophy (1M)
  Pathology: Thymus: (1M), (moderate at terminal,
Male and female rats; rat, in vivo
  Microscopic changes, kidney: kidney tubular degeneration/necrosis and/or regeneration
Male and female rats; rat, in vivo, 14 mg/kg
  Organ weight changes: decreased absolute and relative thymus weights in males and females
Male and female rats; rat, in vivo, 19 mg/kg
  Increase in urea nitrogen: +14%
Male rats; in vivo, 14 mg/kg
  Renal function and renal injury: Evidence of reduced renal function and renal injury
Male rats; in vivo, 19 mg/kg
  Inflammatory response (leukocytes, neutrophils, monocytes, lymphocytes): Evidence of an inflammatory response
Male rats; in vivo, 23 mg/kg
  Body weight: Decreases in body weight were noted throughout the study
Male rats; single IV dose, corresponds to 19 mg/kg
  MTD and STD10 (MTD dose): 122 mg/m^2 and 120 (MTD*) mg/m^2 and 120 (MTD^1) mg/m^2
[3]
  MTD: 19 mg/kg
CYP2D6
  IC50: 720 nM
[4]
  Mean maximal BW loss: 7.4%
CYP1A2
  IC50: 550 nM
Microsomal stability
  Stability in microsome preparations: below the limit of quantitation; also recorded: disappeared quickly
